Values quoted from earlier work, collected in patent publication US20230201166A1, “METHODS FOR TREATING CANCER BY INHIBITING CARM1” (DANA-FARBER CANCER INSTITUTE, INC., priority 2020, published 2023).
Where two headings read alike, the source gives them in different places.

Assays:
[1] = target: T1, CARM1 (Homo sapiens, UniProt Q86X55); conditions: read-out: CARM1 ICW IC50; cited from earlier work
T1 sequence (Q86X55 1-608): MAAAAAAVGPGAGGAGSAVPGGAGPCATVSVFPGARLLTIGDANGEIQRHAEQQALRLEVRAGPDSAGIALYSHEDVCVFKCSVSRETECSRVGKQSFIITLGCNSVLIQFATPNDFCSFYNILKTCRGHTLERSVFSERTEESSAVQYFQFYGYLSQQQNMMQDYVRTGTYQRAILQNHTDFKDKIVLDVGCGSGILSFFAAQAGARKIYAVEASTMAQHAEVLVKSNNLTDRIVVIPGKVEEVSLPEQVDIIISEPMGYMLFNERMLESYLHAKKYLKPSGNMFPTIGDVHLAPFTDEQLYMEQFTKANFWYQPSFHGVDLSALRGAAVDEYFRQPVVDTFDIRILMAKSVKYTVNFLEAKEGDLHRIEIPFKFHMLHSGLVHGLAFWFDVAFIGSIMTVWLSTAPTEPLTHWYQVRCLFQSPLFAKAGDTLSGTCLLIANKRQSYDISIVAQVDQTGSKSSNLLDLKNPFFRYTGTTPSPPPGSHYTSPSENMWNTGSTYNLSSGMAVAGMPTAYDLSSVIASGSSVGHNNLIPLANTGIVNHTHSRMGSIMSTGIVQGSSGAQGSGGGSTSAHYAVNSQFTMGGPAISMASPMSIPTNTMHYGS

[2] = target: T1, CARM1; conditions: read-out: CARM1 Biochemical IC50; cited from earlier work

Row | SMILES | IC50 [1] [µM] | IC50 [2] [µM]
1 | CNC[C@@H](O)COc1ccc(Cl)c(-c2nc(-c3c(C)noc3C)c(C)c(N3Cc4cnc(N5CCC5)nc4C3)n2)c1 [EPZ025654] | 0.011 | 
2 | Cn1cnc2ccc(-c3cccc(OCC(O)CN)c3)nc21 (centres unmarked) [compound 1] | > 20 | 
3 | CC(C)n1ncc2c(N3CCOCC3)cc(-c3cccc(OCC(O)CN)c3)nc21 (centres unmarked) [compound 2] | 19 | 
4 | CNC[C@@H](O)COc1cc(-c2nc(-c3c(C)noc3C)c(C)c(N3CC4(CCN(C(=O)OC)CC4)C3)n2)ccc1Cl [compound 3] | > 6.5 | > 1
